# In patent EP0819124B1, “AZOLE COMPOUNDS WITH ANTIMYCOTIC ACTIVITY FOR HUMAN AND VETERINARY USE” (ZAMBON GROUP S.p.A., priority 1995, dated 1996):
# Read-outs that look alike come from different tables or passages of the source.
# Columns and labels:
# [1] = tested on: C. glabrata (2); assay: In vitro antimycotic activity, strain panel (Table 2); format: cell-based, Candida glabrata; settings: Nakaseomyces glabratus
# Protocol: (§1) The determination of the activity inhibiting the growth of mycetes was evaluated by the macromethod of scalar brothdilutions in geometrical progression (M.R. McGinnis and M.G. Rinaldi, "Antifungal drugs: mechanisms of action, drug resistance, susceptibility testing and assay of activity in biological fluids", in Antibiotic in Laboratory Medicine, Ed. V. Lorian, Baltimora 1991).
# (§2) As culture media Yeast Nitrogen Base broth (YNB) and Sabouraud Dextrose broth (SDB) were used for yeasts and moulds, respectively.
# (§3) The results obtained in SDB (after incubation at 28°C for 7 days) were expressed as minimum inhibiting concentrations (MIC) the growth of mycetes, while those obtained in YNB (after incubation at 35°C for 48 hours) were expressed as concentrations able to inhibit at 50% (IC50) the growth of the yeast.
# (§4) As reference compounds Fluconazole, Itraconazole and Genaconazole were used.
# (§5) Note to the table: MIC expressed as µg/ml Within brackets the number of tested strains Table 3
# [2] = tested on: Fusarium sp; assay: In vitro antimycotic activity against recently isolated Fusarium strains (Tables 2 and 3); format: cell-based; settings: for MIC: Fusarium; for In vitro antimycotic activity: quantity and unit not given in Table 3
# Protocol: as §1, §2, §3, §4, §5
# [3] = tested on: C. neoformans; assay: In vitro antimycotic activity, macromethod of scalar broth dilutions (YNB); format: cell-based; settings: Cryptococcus neoformans
# Protocol: as §1, §2, §3, §4
# [4] = tested on: A. fumigatus; assay: In vitro antimycotic activity, macromethod of scalar broth dilutions (SDB); format: cell-based; settings: Aspergillus fumigatus, 168 h
# Protocol: as §1, §2, §3, §4
# [5] = tested on: Candida albicans 1040; assay: In vivo antimycotic activity in mice experimentally infected by C. albicans, oral route; design: species or system Charles River white mice (CD1 strain); settings: for % percentage of survival after day 3 / % percentage of survival after day 6: mice infected by C. albicans, dose 25 mg/kg/os; for PD50 at 8th day / PD50 at 14th day: oral route, probits analysis; for PD50 at 8th day: 8 days from the infection; for PD50 at 14th day: 14 days from the infection
# Protocol: Charles River white mice (CD1 strain) weighing from 23 to 25 g, normo-feeded with standard diet and water ad libitum were used.
# A suspension (0.2 ml containing 2.5x10^7 cells/ml) of Candida albicans 1040 in physiologic solution was injected to each animal by venous route. Immediately after the infection and after 4, 24 and 48 hours, the animals received by oral route (in arabic gum at 2%) doses increasing in a geometrical progression of the compound to be tested. The infected group was used as control.
# The observation of the mortality of the mice was prolonged up to 14 days. From the number of survived animals for each concentration the average protective dose (DP50) was calculated by probits analysis (L.Lison - "Statistica applicata alla biologia sperimentale. La programmazione dell'esperimento e l'analisi dei risultati" - Casa Editrice Ambrosiana, 1961).
# Compounds R1 and R2 were used as comparative compounds.
# Fluconazole and Itraconazole were used as reference compounds.
# [6] = tested on: T.mentagrophytes; assay: In vitro antimycotic activity, macromethod of scalar broth dilutions (SDB); format: cell-based, Trychophyton mentagrophytes; settings: Trichophyton mentagrophytes, 168 h
# Protocol: as §1, §2, §3, §4
# [7] = tested on: C. krusei (2); assay: In vitro antimycotic activity, strain panel (Table 2); format: cell-based, Candida krusei; settings: Pichia kudriavzevii
# Protocol: as §1, §2, §3, §4, §5
# [8] = tested on: A. niger; assay: In vitro antimycotic activity against recently isolated Aspergillus niger (Table 3); format: cell-based; settings: A. niger strain 94-6222; quantity and unit not given in Table 3
# Protocol: as §1, §2, §3, §4
# [9] = tested on: C. spp * (5) (C. parapsilosis, lusitaniae, kefyr); assay: In vitro antimycotic activity, strain panel (Table 2); format: cell-based; settings: Lodderomyces parapsilosis
# Protocol: as §1, §2, §3, §4, §5
# [10] = tested on: C. albicans (7); assay: as above; format: cell-based; settings: Candida albicans
# Protocol: as §1, §2, §3, §4, §5
# [11] = tested on: B. capitatus (1); assay: as above; format: cell-based; settings: Magnusiomyces capitatus
# Protocol: as §1, §2, §3, §4, §5
# [12] = tested on: C. tropicalis (2); assay: as above; format: cell-based; settings: Candida tropicalis
# Protocol: as §1, §2, §3, §4, §5
# [13] = tested on: C. neoformans (4); assay: as above; format: cell-based; settings: Cryptococcus neoformans
# Protocol: as §1, §2, §3, §4, §5
# [14] = tested on: Trichosporon sp. (1); assay: as above; format: cell-based
# Protocol: as §1, §2, §3, §4, §5
# [15] = tested on: C. albicans 1040; assay: In vitro antimycotic activity, macromethod of scalar broth dilutions (YNB); format: cell-based, Candida albicans
# Protocol: as §1, §2, §3, §4
# [16] = C. glabrata, 2 strains, single value or range printed under head MIC50 MIC90, read-out: MIC
# [17] = C. neoformans, YNB, incubation at 35°C for 48 hours, read-out: IC50
# [18] = A. fumigatus, SDB, incubation at 28°C for 7 days, read-out: MIC
# [19] = T.mentagrophytes, SDB, incubation at 28°C for 7 days, read-out: MIC
# [20] = C. parapsilosis, lusitaniae, kefyr, 5 strains, read-out: MIC50
# [21] = C. parapsilosis, lusitaniae, kefyr, 5 strains, read-out: MIC90
# [22] = C. albicans, 7 strains, read-out: MIC50
# [23] = C. albicans, 7 strains, read-out: MIC90
# [24] = B. capitatus, 1 strain, single value under head MIC50 MIC90, read-out: MIC
# [25] = C. tropicalis, 2 strains, single value or range printed under head MIC50 MIC90, read-out: MIC
# [26] = C. neoformans, 4 strains, read-out: MIC50
# [27] = C. neoformans, 4 strains, read-out: MIC90
# [28] = Trichosporon sp., 1 strain, single value under head MIC50 MIC90, read-out: MIC
# [29] = Candida albicans, C. albicans 1040, YNB, incubation at 35°C for 48 hours, read-out: IC50
smiles,measurement,setting,value
"CC(COC(F)(F)C(F)F)C(O)(Cn1cncn1)c1ccc(Cl)cc1Cl (racemic) [Compound 1, (±)-1-(1H-1,2,4-triazolyl)-2-hydroxy-2-(2,4-dichlorophenyl)-3-methyl-4-(1,1,2,2-tetrafluoroethoxy)butane]",MIC,[1],0.12 µg/mL
same,MIC,[2],0.25 µg/mL
same,In vitro antimycotic activity,[2]; Fusarium sp strain 81-256,0.25
same,In vitro antimycotic activity,[2]; Fusarium sp strain 86-3369,0.5
same,In vitro antimycotic activity,[2]; Fusarium sp strain 88-2116,0.5
same,In vitro antimycotic activity,[2]; Fusarium sp strain 946301,0.5
same,IC50,[3]; 48 h,0.004 µg/mL
same,MIC,[4],8 µg/mL
same,% percentage of survival after day 3,[5],100%
same,% percentage of survival after day 6,[5],100%
same,PD50 at 8th day,[5],0.120 mg/kg/os
same,PD50 at 14th day,[5],0.74 mg/kg/os
same,MIC,[6],0.125 µg/mL
same,MIC,[7],0.03 to 0.12 µg/mL
same,In vitro antimycotic activity,[8],≤0.03
same,MIC50,[9],≤ 0.03 µg/mL
same,MIC90,[9],≤ 0.03 µg/mL
same,MIC50,[10],≤ 0.03 µg/mL
same,MIC90,[10],0.06 µg/mL
same,MIC,[11],≤ 0.03 µg/mL
same,MIC,[12],0.12 µg/mL
same,MIC50,[13],≤ 0.03 µg/mL
same,MIC90,[13],≤ 0.03 µg/mL
same,MIC,[14]; Trichosporon,≤ 0.03 µg/mL
same,IC50,"[15]; Candida albicans, 1040, 48 h",0.0156 µg/mL
"CC(C)(COC(F)(F)C(F)F)C(O)(Cn1cncn1)c1ccc(Cl)cc1 (racemic) [Compound 3, (±)-1-(1H-1,2,4-triazolyl)-2-hydroxy-2-(4-chlorophenyl)-3,3-dimethyl-4-(1,1,2,2-tetrafluoroethoxy)butane]",MIC,[1]; [16],0.5 to 2 µg/mL
same,MIC,[2],16 to 64 µg/mL
same,IC50,[3]; [17],0.0625 µg/mL
same,MIC,[4]; [18],> 128 µg/mL
same,% percentage of survival after day 3,[5],100%
same,% percentage of survival after day 6,[5],100%
same,PD50 at 8th day,[5],0.49 mg/kg/os
same,PD50 at 14th day,[5],1.3 mg/kg/os
same,MIC,[6]; [19],1 µg/mL
same,MIC,[7],0.03 to 0.5 µg/mL
same,MIC50,[9]; [20],≤ 0.03 µg/mL
same,MIC90,[9]; [21],≤ 0.03 µg/mL
same,MIC50,[10]; [22],≤ 0.03 µg/mL
same,MIC90,[10]; [23],2 µg/mL
same,MIC,[11]; [24],0.06 µg/mL
same,MIC,[12]; [25],0.5 µg/mL
same,MIC50,[13]; [26],≤ 0.03 µg/mL
same,MIC90,[13]; [27],0.5 µg/mL
same,MIC,[14]; [28],0.12 µg/mL
same,IC50,[15]; [29],0.0625 µg/mL
CC(C)(COC(F)(F)C(F)F)C(O)(Cn1cncn1)c1ccc(F)cc1F (racemic) [Compound 5],MIC,[1]; [16],0.12 µg/mL
same,MIC,[2],0.25 µg/mL
same,IC50,[3]; [17],0.0156 µg/mL
same,MIC,[4]; [18],8 µg/mL
same,PD50 at 8th day,[5],0.50 mg/kg/os
same,PD50 at 14th day,[5],1.14 mg/kg/os
same,MIC,[6]; [19],0.25 µg/mL
same,MIC50,[7],≤ 0.03 µg/mL
same,MIC90,[7],0.12 µg/mL
same,MIC50,[9]; [20],≤ 0.03 µg/mL
same,MIC90,[9]; [21],≤ 0.03 µg/mL
same,MIC50,[10]; [22],≤ 0.03 µg/mL
same,MIC90,[10]; [23],0.5 µg/mL
same,MIC,[11]; [24],0.06 µg/mL
same,MIC,[12]; [25],0.12 µg/mL
same,MIC50,[13]; [26],≤ 0.03 µg/mL
same,MIC90,[13]; [27],≤ 0.03 µg/mL
same,MIC,[14]; [28],≤ 0.03 µg/mL
same,IC50,[15]; [29],0.0156 µg/mL
